Laboratory results published in ChEMBL document CHEMBL1782045, “Discovery, synthesis, and investigation of the antitumor activity of novel piperazinylpyrimidine derivatives” (Eur J Med Chem, 2011).

Columns and labels:
[1] = molecular target: T1, Hepatocyte growth factor receptor (Homo sapiens, UniProt P08581)
Description: Binding affinity to human phosphorylated c-MET

[2] = molecular target: T1, Hepatocyte growth factor receptor; remark: listed apart in the source
Description: Binding affinity to human unphosphorylated c-MET

T1 sequence (P08581 whole entry): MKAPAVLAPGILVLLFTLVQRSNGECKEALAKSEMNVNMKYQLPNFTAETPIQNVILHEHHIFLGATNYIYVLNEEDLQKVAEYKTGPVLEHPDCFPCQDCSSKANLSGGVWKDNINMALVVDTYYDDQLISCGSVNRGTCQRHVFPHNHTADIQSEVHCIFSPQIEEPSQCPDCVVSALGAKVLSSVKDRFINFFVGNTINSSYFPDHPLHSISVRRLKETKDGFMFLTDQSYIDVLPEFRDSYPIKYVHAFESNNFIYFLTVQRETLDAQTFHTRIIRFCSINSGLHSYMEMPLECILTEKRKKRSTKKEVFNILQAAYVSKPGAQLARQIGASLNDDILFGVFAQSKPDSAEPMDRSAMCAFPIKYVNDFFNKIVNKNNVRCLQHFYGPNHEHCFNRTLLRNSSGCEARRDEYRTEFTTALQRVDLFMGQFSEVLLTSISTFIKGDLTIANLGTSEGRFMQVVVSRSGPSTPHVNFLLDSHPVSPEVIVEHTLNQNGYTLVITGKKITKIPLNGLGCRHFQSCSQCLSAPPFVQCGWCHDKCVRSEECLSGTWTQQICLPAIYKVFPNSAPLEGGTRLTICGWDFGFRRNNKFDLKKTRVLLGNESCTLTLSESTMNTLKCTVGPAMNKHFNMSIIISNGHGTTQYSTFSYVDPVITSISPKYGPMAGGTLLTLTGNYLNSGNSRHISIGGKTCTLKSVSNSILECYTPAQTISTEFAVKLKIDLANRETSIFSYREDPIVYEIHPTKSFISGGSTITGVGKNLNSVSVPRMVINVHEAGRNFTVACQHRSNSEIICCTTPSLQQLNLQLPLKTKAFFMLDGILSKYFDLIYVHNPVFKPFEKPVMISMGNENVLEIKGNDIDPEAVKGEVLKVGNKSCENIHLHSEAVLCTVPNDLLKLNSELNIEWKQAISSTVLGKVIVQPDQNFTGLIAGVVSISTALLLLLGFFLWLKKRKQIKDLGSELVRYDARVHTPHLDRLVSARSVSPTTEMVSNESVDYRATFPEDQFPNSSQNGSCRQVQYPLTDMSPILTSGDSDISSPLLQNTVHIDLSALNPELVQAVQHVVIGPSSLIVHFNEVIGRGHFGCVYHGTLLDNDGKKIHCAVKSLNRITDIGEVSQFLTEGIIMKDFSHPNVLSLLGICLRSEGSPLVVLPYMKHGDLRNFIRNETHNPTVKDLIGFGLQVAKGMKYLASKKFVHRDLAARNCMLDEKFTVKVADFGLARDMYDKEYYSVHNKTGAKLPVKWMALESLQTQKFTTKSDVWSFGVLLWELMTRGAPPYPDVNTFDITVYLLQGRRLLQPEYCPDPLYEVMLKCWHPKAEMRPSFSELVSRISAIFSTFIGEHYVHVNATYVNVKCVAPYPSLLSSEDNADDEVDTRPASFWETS

CN(C[C@@H]1COCCO1)S(=O)(=O)Nc1ccc2ccc3ncc(-c4cnn(C)c4)cc3c(=O)c2c1 [MK-2461]
Kd [1]: 4.4 nM
Kd [2]: 27.2 nM
